Source: patent US10301344B2, “L-proline complex of sodium-glucose cotransporter 2 inhibitor, monohydrate and crystal form thereof” (Jiangsu Hengrui Medicine Co., Ltd., priority 2014, dated 2019)

Experiment: Development form properties of the free compound and the complex (hygroscopicity, stability)

| hygroscopic properties (free compound, background statement) | Compound | stability in comparison to the free compound |
| --- | --- | --- |
| hygroscopic | CCOc1ccc(Cc2cc(C34OC[C@](CO)(O3)C(O)[C@H](O)C4O)ccc2Cl)cc1F (stereo in doubt) [1,6-anhydro-1-C-{4-chloro-3-[(3-fluoro-4-ethoxyphenyl)methyl]phenyl}-5-C-(hydroxymethyl)-β-L-idopyranose] |  |
|  | 1,6-anhydro-1-C-{4-chloro-3-[(3-fluoro-4-ethoxyphenyl)methyl]phenyl}-5-C-(hydroxymethyl)-β-L-idopyranose L-proline complex [complex of formula (I)] | improved stability |
